Source: PubChem BioAssay (NCI)
“And” between values parts separate entries of the source, which are not always exact repeats. Equal values may be shown once.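 Test compounds were applied to cells in 96-well plates for 48 hours at 5 doses. GI50 is the concentration that inhibits growth by half. TGI: concentration producing complete growth inhibition.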

System: MDA-MB-468 breast
Assay: NCI-60 cell line screen, 48 h

Compound	GI50	TGI
Cc1c(Nc2nccc3cc(CN4CC[C@@H](O)C4)cnc23)cccc1-c1cccc(-c2nc3cc(CN4CC[C@@H](C(=O)O)C4)cc(C#N)c3o2)c1C	11200 nM	35200 nM
O=C1NC(=O)C(=Cc2cn(Cc3ccccc3)c3ccccc23)C(=O)N1	142 nM	390 nM
COC(=O)CCC(=O)NC1=C(Nc2ccccc2)C(=O)c2ccccc2C1=O	3040 nM	10500 nM
NC1=NC(SCc2ccccc2CCl)c2ncn(Cc3ccccc3CCl)c2N1 (stereo not drawn)	1710 nM	3720 nM
CN1CCN(CCCOc2ccc3nc(Nc4ccc(F)c(F)c4)ccc3c2)CC1	1370 nM	4360 nM
Nc1c(C(=O)c2cccc(C(O)CO)c2)cnn1-c1ccc(F)cc1 (stereo not drawn)	> 25000 nM	> 25000 nM
O=C1C(N2CCN(CCOCCO)CC2)=C(Cl)C(=O)c2ncccc21	19300 nM	39300 nM
CC(C)[P+](c1ccccc1)(c1ccccc1)c1ccccc1	1120 nM	10700 nM
O=c1cc(-c2ccccc2)[nH]c2c1CCCC2	1570 nM	4990 nM
CN(C)CCN1C(=O)c2cccc3c(/C=C/CN4C(=O)c5cccc6cccc(c56)C4=O)ccc(c23)C1=O	14000 nM	34300 nM
Nc1nc(Cl)nc2c1ncn2C1OC(CO)C(O)C1F (stereo not drawn)	285 nM	891 nM
COc1ccc(C2NN=C3c4ccccc4CCC32)cc1 (stereo not drawn)		41.6 nM
O=C1NC(=O)C(c2cccc(Cl)c2)=C1Nc1ccc(Cl)c(C(=O)O)c1	> 25000 nM	> 25000 nM
Cc1cc(=O)[nH]c(N/N=C/c2ccccc2O)n1	3030 nM	46900 nM
COc1ccc(Nc2ncnc3ccc(-c4cncc(NS(C)(=O)=O)c4)cc23)cc1Cl	785 nM	3100 nM
COC1=C(OC)C(=O)C(C/C=C(\C)CC/C=C(\C)CC/C=C(\C)CC/C=C(\C)CC/C=C(\C)CC/C=C(\C)CC/C=C(\C)CC/C=C(\C)CC/C=C(\C)CCC=C(C)C)=C(C)C1=O	> 100000 nM	> 100000 nM
CC(=O)c1c[nH]c2ccc(-c3ccnc(Nc4ccc(NC(=O)C5CCCC5)c(CN5CCOCC5)c4)n3)cc12	21.9 nM	77.4 nM
CN1CCN(Cc2ccc(NC(=O)c3cncc(C#Cc4cnc5ccc(NC6CCOCC6)nn45)c3)cc2C(F)(F)F)CC1	33.8 nM and 19.6 nM	222 nM and 67.2 nM
CC1=C(CO)C(=O)O[C@@H]([C@@H](C)[C@H]2CC[C@H]3[C@@H]4C[C@H]5O[C@]56[C@@H](O)C=CC(=O)[C@]6(C)[C@H]4CC[C@]23C)C1	278 nM	1210 nM
O=C(O)COc1ccc(OCC(=O)O)cc1	326 nM	2090 nM
CCN(CC)CCCNCc1cc(-c2ccccc2)nc2cc(Cl)ccc12	1930 nM	3920 nM
CN1CCN(C(=O)c2ccc(NC(=O)Nc3ccc(-c4nc(N5CCOCC5)c5cccn5n4)cc3)cc2)CC1	21 nM	77 nM
COc1ccc2nc(C)cc(Sc3nc4ccccc4s3)c2c1	2200 nM	11400 nM
CN1CCN(Cc2ccc(NC(=O)c3[nH]ncc3Nc3ncnc4[nH]ccc34)cc2)CC1	247 nM	562 nM
CCN1CCN(c2cc(C(=O)Nc3cccc(Nc4ccc5c(OC)cccc5n4)c3)cc(C(F)(F)F)c2)CC1	749 nM	4050 nM
COc1cc2nc(N3CCC[C@H](NC4=CC(=O)c5ccccc5C4=O)C3)nc(N)c2cc1OC	1790 nM	3530 nM
O=C(Nc1ccc(-n2cc(-c3ccncc3)c(-c3ccc(O)c(Cl)c3)n2)cc1)c1ccc(Cl)c(C(F)(F)F)c1	2590 nM	48400 nM
